From patent publication US20190388362A1, “PHARMACEUTICAL COMPOSITION FOR TREATING ORAL PRECANCER AND METHOD FOR PREDICTING OR DIAGNOSING ORAL PRECANCER OR ORAL CANCER” (MET Life Sciences Co., Ltd., priority 2017, published 2019) come the findings set out here.

As a reminder, the Kd is a measure of binding affinity in units of concentration.

Assay [1] deals with Snail. The experiment in a line: Snail expression in cell lysate of colorectal cancer cells treated with HCA and BCA. Particulars: at an nM level. The assay is classed as cell-based. The source says:
(§1) According to the previous research results, it has been known that 2′-Hydroxycinnamaldehyde (HCA), which is a main component of cinnamon, and a derivative thereof, i.e., 2′-benzoyloxycinnamaldehyde (BCA) inhibit cancer metastasis through Snail expression inhibition by inhibiting LRP-1 receptors (Hwang H et al., J Neuroimmunol 2011, 230, 52-64; Ismail I A, et al., Breast Cancer Res Treat, 137, 697-708, 2013). Thus, to confirm whether HCA and BCA are capable of inhibiting Axin2 expression and Snail expression, colorectal cancer cells were treated with HCA and BCA, and it was examined whether Axin2 and Snail were expressed in a cell lysate. As HCA and BCA, those separated from cinnamon bark and purified were used (Hwang H et al., J Neuroimmunol 2011, 230, 52-64). As a result, as illustrated in FIGS. 11A and 11B, it was confirmed that HCA and BCA inhibited the expression of Axin2 and Snail at an nM level.

Assay [2] deals with Axin2. The experiment in a line: Axin2 expression in cell lysate of colorectal cancer cells treated with HCA and BCA. The assay is classed as cell-based. Particulars: at an nM level.
Text: as §1

Assay [3] has as its system oral precancer cell line D38. Nature of the assay: Soft agar colony formation assay, D38. The assay is classed as cell-based. Particulars: 3 weeks, according to niclosamide treatment concentration. On the procedure:
(§2) The oral precancer cell line D38 and the oral cancer cell line YD10B were cultured on soft agar plates containing various concentrations of niclosamide. The corresponding concentration of niclosamide was administered while the respective cells were cultured on the soft agar plates for 3 weeks.

The target of a further assay is recombinant GSK3β (Homo sapiens, UniProt P49841). The experiment in a line: Surface plasma resonance (SPR) analysis on immobilized recombinant GSK3β. The format is binding. On the procedure:
Surface plasma resonance (SPR) analysis was performed to confirm whether niclosamide directly binds to GSK3. SPR was conducted using the ProteOn™ XPR36 Protein Interaction Array system (Bio-Rad Laboratories, Inc., CA, USA), and purified recombinant GSK3β, was immobilized to a ProteOn GLH sensor chip. Niclosamide or 19-mer wild type Axin peptide or mutant peptide (VEPQKAAEEAIHRAEAVQR, mutation underlined) were diluted by phosphate-buffered saline+Tween 20+1% DMSO at different concentrations and then flowed over the chip at a rate of 100 μl/min. The results thereof were analyzed by ProteOn Manager Software 2.0 using the standard Langmuir models for fitting kinetic data. The rate of complex formation was represented by the association constant (ka, in the unit of M-1s-1), and the rate of complex decay was represented by the dissociation constant (kd, in the unit of s-1), as given by Equation 1 below.
A high-affinity interaction is represented by a low dissociation constant, and rapid recognition and binding with interactants (rapid “on rate,” or high ka) and the stability of complex formation (slow “off rate,” or low kd) are as shown in the following equation: KD=kd/ka.

Assay [4] concerns oral cancer cells YD10B. Nature of the assay: YD10B oral cancer cell transplant in immunodeficient mice. To be noted: 200 mg/kg (mpk), orally, daily; Balb/c athymic nude mice with YD10B cells. The assay is classed as in vivo. The source says:
To confirm the effect of niclosamide on the inhibition of oral cancer in an animal model, oral cancer cells YD10B (3×10^6 cells) were transplanted to immunodeficient mice (Balb/c, athymic nude mice, NaraBiotech), the mice were divided into two groups, and then niclosamide was orally administered to the two groups daily.

Assay [5] has as its system Snail. Nature of the assay: Western blotting of Snail in oral cancer and oral precancer cell lines. The format is cell-based. To be noted: YD-10B, KB and D38 cell lines, 16 hours. An excerpt:
(§3) The expression of Axin2 and Snail was confirmed in a cell lysate after treating YD-10B (CVCL-8929) and KB (CVC_L 0372), which are oral cancer cell lines, and D38, which is an oral precancer cell line (McGregor F. et al., CANCER RESEARCH 62, 4757-4766, 2002), with various concentrations of niclosamide by using the same method of Example 5.
(§4) For the YD-10B and KB cell lines, a RPMI1640 medium containing 10% FBS and 1% penicillin/streptomycin was used. For the oral precancer cell line D38, a DMEM: F12 (3:1) medium containing 10% FBS and 1% penicillin/streptomycin was used. The respective cells were treated with niclosamide at the indicated concentration for 16 hours and the expression of Axin2 and Snail was analyzed through western blotting.
(In western blotting, separated proteins are transferred to a membrane and probed.)

For assay [6], the system named is oral precancer cell line D38. Nature of the assay: 3D culture model on collagen sheet, D38. The assay is classed as cell-based. To be noted: 0.125 μM niclosamide. On the procedure:
To confirm the niclosamide treatment effect in a 3D culture model, the results of treatment with 0.125 μM niclosamide when the oral precancer cell line D38 was cultured on a collagen sheet are illustrated in FIG. 17, in part A thereof.

For assay [7], the system named is Axin2. Nature of the assay: Axin2 expression in colorectal cancer cell lines treated with niclosamide. The format is cell-based. To be noted: HCT116, SW480, SW620 and DLD-1 cells; niclosamide at an nM level.
In assay [8] the test system is oral cancer cells YD10B. The experiment in a line: 3D culture model, YD10B. Particulars: YD10B three-dimensionally cultured, 0.125 μM niclosamide. The assay is classed as cell-based.
Assay [9] relates to oral precancer cell line D38. Nature of the assay: Trypan exclusion assay for apoptosis. The assay is classed as cell-based. To be noted: D38, 72 hours, concentration-dependent. As for the experimental part:
The oral precancer cell line D38 was treated with various concentrations of niclosamide for 72 hours and apoptosis was confirmed through a trypan exclusion assay.

The target of assay [10] is T1, recombinant GSK3 beta / Axin peptide interaction (Homo sapiens, UniProt P49841).
T1 construct: made in house; host or cells: Sf9 insect cells (GSK3 beta); peptide chemically synthesized (Peptron)
Nature of the assay: Competitive inhibition of recombinant GSK3 binding to FITC-conjugated 19-mer Axin peptide (bead fluorescence). Particulars: in proportionate to the concentration of niclosamide added; 2 hours. An excerpt:
In the previously reported results of analyzing the structure of Axin-GSK3 binding, accumulation of the hydrophobic residues of Axin α-helix into a hydrophobic groove formed by the C-terminal loop of GSK3 is disclosed (Dajani R et al., EMBO J. 22:494-501, 2003), and thus the inventors of the present invention hypothesized that niclosamide would bind to the hydrophobic groove of GSK3 and interfere with the function of Axin. To verify this, in vitro analysis was designed to identify competitive inhibition of recombinant GSK3 binding to 19-mer FITC-conjugated Axin peptides by niclosamide.
Hig-tagged recombinant GSK3 beta was obtained from sf9 insect cells using a known method (Lee D G, et al. Nat Commun. 5:4423, 2014). The FITC-conjugated 19-mer Axin peptide (Axin1, 383-401, VEPQKFAEELIHRLEAVQR), which is known to bind to GSK3 as an amphipathic α-helix, was chemically synthesized (Peptron). To confirm competitive binding between the synthesized Axin peptide and niclosamide, His-tagged recombinant GSK3 and Ni—Ti beads were treated with niclosamide for 2 hours, and then washed three times with PBS, and quantitative fluorescence measurement was performed using Ni—Ti beads. Fluorescence intensity was represented in proportionate to the fluorescence intensity of a negative control from the 3rd experiment.

Assay [11] concerns Snail. The experiment in a line: Snail expression in colorectal cancer cell lines treated with niclosamide. The format is cell-based. Particulars: HCT116, SW480, SW620 and DLD-1 cells; niclosamide at an nM level.
Assay [12] deals with oral precancer cell line D38. Nature of the assay: Cell growth by counting cells in real time, D38. The format is cell-based. Particulars: as the concentration of niclosamide was increased. As for the experimental part:
(§5) The oral cancer cell lines YD-10B and KB and the oral precancer cell line D38 were treated with various concentrations of niclosamide, and cell growth was measured by counting cells in real time.

For another assay, the target named is T2, Axin-GSK3 complex (Homo sapiens, UniProt P49841).
T2 construct: expressed in transfected cells; host or cells: MCF-7 (Axin2 transfected, doxycycline-induced; GSK3 endogenous)
Nature of the assay: Immunoprecipitation of His-tagged Axin2 from MCF-7 cell lysate, immunoblot for GSK3. The format is binding. Particulars: MCF-7 cells with His-tagged Axin2, Triton X-100 lysate, Ni-Ti beads. On the procedure:
To confirm whether niclosamide is capable of inhibiting Axin-GSK3 interaction, cell lysates with full-length Axin2 were examined to perform immunoprecipitation experiments in the presence or absence of niclosamide.
An immunoprecipitation assay was performed as follows (Yook J I, et al. Nat Cell Biol. 8:1398-1406, 2006).
A doxycycline-induced His-tagged Axin2 expression vector was transfected into MCF-7 cells (ATCC, American Type Culture collection) and cultured, and a Triton X-100 lysate of whole cells was treated with Ni—Ti beads (Invitrogen) and niclosamide at each concentration to allow a reaction to occur therebetween. Proteins recovered in the beads were subjected to SDS-PAGE, followed by immunoblot analysis for GSK3, and a 1/20 volume of a control was added thereto.

The subject of a further assay is oral cancer cell line KB. The experiment in a line: Cell growth by counting cells in real time, KB. The assay is classed as cell-based. Particulars: as the concentration of niclosamide was increased. On the procedure:
as §5

In the next assay the test system is YD-10B cell line. The experiment in a line: Migration assay (crystal violet), YD-10B. The format is cell-based. Particulars: niclosamide-concentration-dependent. As for the experimental part: (§6) Cell migration is regulated by Axin2 and Snail. In the present example, the YD-10B cell line, the KB cell line, and the oral precancer cell line D38 were treated with niclosamide, a migration assay was performed thereon, and then the cells were stained with crystal violet and cell migration values were measured.

Assay [13] has as its system Axin2. Nature of the assay: Western blotting of Axin2 in oral cancer and oral precancer cell lines. The format is cell-based. Particulars: YD-10B, KB and D38 cell lines, 16 hours.
Text: as §3, §4

For assay [14], the system named is oral precancer cell line D38. The experiment in a line: Migration assay (crystal violet), D38. The format is cell-based. To be noted: niclosamide-concentration-dependent. On the procedure: as §6
A further assay has as its system KB cell line. Nature of the assay: Migration assay (crystal violet), KB. The format is cell-based. Particulars: niclosamide-concentration-dependent. On the procedure: as §6
Assay [15] concerns oral cancer cell line YD-10B. The experiment in a line: Cell growth by counting cells in real time, YD-10B. Particulars: as the concentration of niclosamide was increased. The assay is classed as cell-based. On the procedure: as §5
Assay [16] deals with oral cancer cell line YD10B. Nature of the assay: Soft agar colony formation assay, YD10B. The format is cell-based. To be noted: 3 weeks, according to niclosamide treatment concentration. As for the experimental part:
as §2

recombinant GSK3β, sequence (P49841 whole entry): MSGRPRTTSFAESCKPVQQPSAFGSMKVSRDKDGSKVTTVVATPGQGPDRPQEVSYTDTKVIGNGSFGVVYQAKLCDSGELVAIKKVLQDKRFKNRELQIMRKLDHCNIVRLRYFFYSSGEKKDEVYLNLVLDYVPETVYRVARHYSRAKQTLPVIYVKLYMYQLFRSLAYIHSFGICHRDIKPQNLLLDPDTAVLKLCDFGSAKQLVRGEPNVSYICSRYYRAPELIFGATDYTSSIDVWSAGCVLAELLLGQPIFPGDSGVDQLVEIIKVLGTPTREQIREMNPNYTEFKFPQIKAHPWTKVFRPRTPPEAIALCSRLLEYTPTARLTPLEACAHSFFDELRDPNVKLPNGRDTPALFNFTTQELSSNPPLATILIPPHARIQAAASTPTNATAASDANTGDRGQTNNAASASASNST
T2 sequence (P49841 whole entry, one chain of several): as the sequence (P49841 whole entry) above
T1 sequence (P49841 whole entry): as above

For `O=CC=Cc1ccccc1OC(=O)c1ccccc1` [BCA, 2′-benzoyloxycinnamaldehyde], in the assay on Snail [1], the “expression of Snail” value is “inhibited”. Besides, the “expression of Axin2” value in the assay on Axin2 [2] is on record as “inhibited”.

On to `O=CC=Cc1ccccc1O` [HCA, 2′-Hydroxycinnamaldehyde], for which the “expression of Snail” value with Snail [1] is “inhibited”. In addition, the “expression of Axin2” value in the assay with Axin2 [2] is given as “inhibited”.

In the case of `O=C(Nc1ccc([N+](=O)[O-])cc1Cl)c1cc(Cl)ccc1O` [niclosamide], the colony formation entry in assay [3] and in [16] was “inhibited” throughout. In addition, the “direct binding to GSK3” value on recombinant GSK3β was “directly bound”. In addition, the Kd on recombinant GSK3β (GSK3β immobilized on sensor chip, read-out: equilibrium dissociation constant KD) came to 34 µM. Moreover, the volume of tumors result in the assay with oral cancer cells YD10B [4] is given as “reduced”. For the same molecule, the “expression of Snail” value in the assay with Snail [5] is recorded as “inhibited”. Also, in [6], the cell density result is listed as “reduced”. Further, the keratinocytic differentiation entry in assay [6] was “induced”. For the same molecule, the basal membrane result in [6] (destroyed in control) is “smooth basal membrane was observed”. In addition, the Axin2 expression entry in the assay on Axin2 [7] is “decreased”. For the same molecule, the “invasiveness of cancer cells” value in the assay on oral cancer cells YD10B [8] is given as “rapidly reduced”. Also, the apoptosis result in assay [9] is “occurred”. In addition, the “interaction between the recombinant GSK3 and the synthesized Axin peptide” value in [10] is reported as “inhibited”. Besides, the Snail expression result in the assay on Snail [11] is “decreased”. Moreover, the cell growth entry (in [12]; with oral cancer cell line KB; in assay [15]) was “inhibited” each time. Also, the “GSK3 that binds to Axin2 in a total cell lysate” value at Axin-GSK3 complex was “reduced”. The cell migration entry (in the assay on YD-10B cell line; in assay [14]; in the assay on KB cell line) was “inhibited” each time. The “expression of Axin2” value in the assay on Axin2 [13] is listed as “inhibited”.

Consider `CC[C@H](C)[C@H](NC(=O)[C@H](CC(C)C)NC(=O)[C@H](CCC(=O)O)NC(=O)[C@H](CCC(=O)O)NC(=O)[C@H](C)NC(=O)[C@H](Cc1ccccc1)NC(=O)[C@H](CCCCN)NC(=O)[C@H](CCC(N)=O)NC(=O)[C@@H]1CCCN1C(=O)[C@H](CCC(=O)O)NC(=O)[C@@H](N)C(C)C)C(=O)N[C@@H](Cc1c[nH]cn1)C(=O)N[C@@H](CCCNC(=N)N)C(=O)N[C@@H](CC(C)C)C(=O)N[C@@H](CCC(=O)O)C(=O)N[C@@H](C)C(=O)N[C@H](C(=O)N[C@@H](CCC(N)=O)C(=O)N[C@@H](CCCNC(=N)N)C(=O)O)C(C)C` [wild type Axin peptide], for which, on recombinant GSK3β, the “direct binding to GSK3” value was “directly bound”.

For the molecule “Mutant Axin peptide: mutant 19-mer Axin peptide VEPQKAAEEAIHRAEAVQR, mutations on hydrophobic residues”, the “binding to GSK3 protein immobilized on a sensor surface” value in the assay with recombinant GSK3β (up to 100 μM) is “unable to bind”.
